Patent publication US20210363152A1, “AMINOAZINE AMIDES” (Hoffmann-La Roche Inc., priority 2018, published 2021)
pIC50: −log10 of the molar value.

Biological target: T1, Autotaxin enzyme (ATX) (Homo sapiens, UniProt Q13822)
T1 construct: purchased Echelon Biosciences, Inc. E-4000
Assay: In vitro ATX assay (enzymatic ATX inhibition, LPC 14:0 substrate, choline oxidase/HRP absorbance readout)
Type: biochemical
Conditions: 0.3 mM LPC 14:0, 37° C., 4 hours, absorbance 555 nm
Procedure: • Assay buffer: 100 mM Tris-HCl, pH 9.0, 500 mM NaCl, 5 mM MgCl2, 30 μM CoCl2, 0.05% Triton X-100 • Assay buffer II: 4.5 mM 4-AAP, 2.7 mM TOOS, 21.2 U/mL HRP, 3 U/mL CO, In 50 mM Tris-HCl pH 8.0, 4.5 mM MgCl2
A compound preparation plate (Nunc 249944) was prepared by adding 30 mM stock solution (in DMSO) of test compound and performing a serial full-log dilution down to 30 nM. Two μL/well were transferred from the first compound prep plate to a compound dilution plate (Corning, 3641) and 198 μL assay buffer I was added for a […].
A 10 ng/mL solution of ATX was prepared by diluting in assay buffer I, and 80 μL/well were added to the assay plate (Corning, 3641); negative control wells contained 80 μL/well assay buffer I only (no ATX). Ten μL/well from the compound dilution plate (containing serially diluted test compound or DMSO) were added to the assay plate, which was then incubated at 37° C. for 15 minutes. A solution of LPC 14:0 was prepared in assay buffer I at 3 mM and 10 μl/well were added to the assay plate, for a final concentration of 0.3 mM LPC, and returned to 37° C. incubator for 4 hours. After 4 hour incubation, 100 μL/well of assay buffer II was added to all wells of the assay plate. The plate was incubated at RT for 15 minutes, prior to reading on FlexStation in absorbance mode, 555 nm. Results in the enzymatic ATX inhibition assay are provided for compounds of formula (I). An IC50 value of “A” is less than 100 nM, “B” is equal to or greater than 100 nM but less than 1 μM, “C” is equal to or greater than 1 μM.

Compound	pIC50
CCOc1cc(CNc2ncc(C(=O)N3CCC34COC4)cn2)cc(OCC)c1 [Example 53]	> 7.00
O=C(c1cnc(NCc2cc(Cl)ccc2Cl)nc1)N1CCC12COC2 [Example 54]	6.00 to 7.00
O=C(c1cnc(NC2Cc3ccc(Cl)cc3C2)nc1)N1CCC1 (stereo not drawn) [Example 56]	> 7.00
COC[C@@H]1CCN1C(=O)c1cnc(NC2Cc3ccc(Cl)cc3C2)nc1 (stereo partly drawn) [Example 57]	> 7.00
CC(C)Oc1cc(CNc2ncc(C(=O)N3CCC3C(C)(C)O)cn2)cc(OC(C)C)c1 (stereo not drawn) [Example 58]	> 7.00
O=C(c1cnc(N[C@H]2Cc3ccc(Br)cc3C2)nc1)N1CCC12COC2 [Example 61]	6.00 to 7.00
CC(C)Oc1cc(CNc2ncc(C(=O)N3CCC34COC4)cn2)cc(N2CCC2)c1 [Example 63]	6.00 to 7.00
O=C(c1ccc(NCc2cccc(OC(F)(F)F)c2)nn1)N1CCC12COC2 [Example 72, 6-Oxa-1-azaspiro[3.3]heptan-1-yl(6-((3-(trifluoromethoxy)benzyl)amino)pyridazin-3-yl)methanone]	≤ 6.00
CC(C)c1cc(CNc2cnc(C(=O)N3CCC3)cn2)cc(OC(F)(F)F)c1 [Example 74, Azetidin-1-yl(5-((3-isopropyl-5-(trifluoromethoxy)benzyl)amino)pyrazin-2-yl)methanone]	6.00 to 7.00
CC(C)c1cc(CNc2cnc(C(=O)N3CCC34COC4)cn2)cc(OC(F)(F)F)c1 [Example 75, (5-((3-Isopropyl-5-(trifluoromethoxy)benzyl)amino)pyrazin-2-yl)(6-oxa-1-azaspiro[3.3]heptan-1-yl)methanone]	> 7.00
CC(C)c1cc(CNc2ccc(C(=O)N3CCC34COC4)cn2)cc(OC(F)(F)F)c1 [Example 76, (6-((3-Isopropyl-5-(trifluoromethoxy)benzyl)amino)pyridin-3-yl)(6-oxa-1-azaspiro[3.3]heptan-1-yl)methanone]	> 7.00
O=C(c1ccc(NCc2cc(OC(F)(F)F)cc(C3CC3)c2)nc1)N1CCC12COC2 [Example 77, (6-((3-Cyclopropyl-5-(trifluoromethoxy)benzyl)amino)pyridin-3-yl)(6-oxa-1-azaspiro[3.3]heptan-1-yl)methanone]	> 7.00
O=C(c1ccc(NC2Cc3ccc(Cl)cc3C2)nc1)N1CCC12COC2 (stereo not drawn) [Example 78, (6-((5-Chloro-2,3-dihydro-1H-inden-2-yl)amino)pyridin-3-yl)(6-oxa-1-azaspiro[3.3]heptan-1-yl)methanone]	6.00 to 7.00
O=C(c1cnc(NCc2cc(OC(F)(F)F)cc(C3CC3)c2)nc1)N1CCC12CCC2 [Example 79, (2-((3-Cyclopropyl-5-(trifluoromethoxy)benzyl)amino)pyrimidin-5-yl)(1-azaspiro[3.3]heptan-1-yl)methanone]	> 7.00
O=C(c1cnc(NCc2cc(OC(F)(F)F)cc(C3CC3)c2)nc1)N1CCC12COC2 [Example 80, (2-((3-cyclopropyl-5-(trifluoromethoxy)benzyl)ami-no)pyrimidin-5-yl)(6-oxa-1-azaspiro[3.3]heptan-1-yl)-methanone]	> 7.00
O=C(c1cnc(NCc2cc(OC(F)(F)F)cc(C3CC3)c2)nc1)N1CC2(COC2)C1 [Example 82, (2-((3-cyclopropyl-5-(trifluoromethoxy)benzyl)ami-no)pyrimidin-5-yl)(2-oxa-6-azaspiro[3.3]heptan-6-yl)methanone]	6.00 to 7.00
CC(C)(O)C1CN(C(=O)c2cnc(NCc3cc(OC(F)(F)F)cc(C4CC4)c3)nc2)C1 [Example 84, (2-((3-cyclopropyl-5-(trifluoromethoxy)benzyl)ami-no)pyrimidin-5-yl)(3-(2-hydroxypropan-2-yl)azetidin-1-yl)methanone]	6.00 to 7.00
O=C(c1cnc(NCc2cc(OC(F)(F)F)cc(C3CC3)c2)nc1)N1CC(F)C1 [Example 85, (2-((3-cyclopropyl-5-(trifluoromethoxy)benzyl)ami-no)pyrimidin-5-yl)(3-fluoroazetidin-1-yl)-methanone]	> 7.00
CS(=O)(=O)C1CN(C(=O)c2cnc(NCc3cc(OC(F)(F)F)cc(C4CC4)c3)nc2)C1 [Example 88, (2-((3-cyclopropyl-5-(trifluoromethoxy)benzyl)ami-no)pyrimidin-5-yl)(3-(methylsulfonyl)azetidin-1-yl)methanone]	6.00 to 7.00

Second part, the molecule after the results:

pIC50	Compound
> 7.00	CC(C)Oc1cc(CNc2ncc(C(=O)N3CCC34COC4)cn2)cc(OC(C)C)c1 [Example 52]
6.00 to 7.00	O=C(c1cnc(NCc2cccc(Cl)c2Cl)nc1)N1CCC12COC2 [Example 55]
> 7.00	CC(C)Oc1cc(CNc2ncc(C(=O)N3CCC3C(C)(C)O)cn2)cc(C2CC2)c1 (stereo not drawn) [Example 59]
> 7.00	CC(C)(O)C1CCN1C(=O)c1cnc(NC2Cc3ccc(Cl)cc3C2)nc1 (stereo not drawn) [Example 60]
> 7.00	O=C(c1cnc(N[C@@H]2Cc3ccc(Br)cc3C2)nc1)N1CCC12COC2 [Example 62]
> 7.00	CC(C)c1cc(CNc2ncc(C(=O)N3CCC3C(C)(C)O)cn2)cc(OC(F)(F)F)c1 (stereo not drawn) [Example 64]
> 7.00	CC(C)(O)C1CCN1C(=O)c1cnc(NCc2cc(C3CC3)cc(C3CC3)c2)nc1 (stereo not drawn) [Example 65]
> 7.00	CCOc1cc(CNc2ncc(C(=O)N3CCC3C(C)(C)O)cn2)cc(OC(F)(F)F)c1 (stereo not drawn) [Example 66]
> 7.00	CCOc1cc(CNc2ncc(C(=O)N3CCC34COC4)cn2)cc(C2CC2)c1 [Example 67]
> 7.00	CC(C)(O)C1CCN1C(=O)c1cnc(NCc2cc(OC(F)(F)F)cc(N3CCC3)c2)nc1 (stereo not drawn) [Example 68]
6.00 to 7.00	O=C(c1cnc(NCc2cccc(OC(F)(F)F)c2)cn1)N1CCC12COC2 [Example 71, 6-Oxa-1-azaspiro[3.3]heptan-1-yl(5-((3-(trifluoromethoxy)benzyl)|amino)pyrazin-2-yl)methanone]
≤ 6.00	O=C(c1ccc(NCc2cccc(OC(F)(F)F)c2)nc1)N1CCC12COC2 [Example 73, 6-Oxa-1-azaspiro[3.3]heptan-1-yl(6-((3-(trifluoromethoxy)benzyl)amino)pyridin-3-yl)methanone]
> 7.00	O=C(c1cnc(NCc2cc(OC(F)(F)F)cc(C3CC3)c2)nc1)N1CCC1 [Example 81, azetidin-1-yl(2-((3-cyclopropyl-5-(trifluoro-methoxy)benzyl)amino)-pyrimidin-5-yl)methanone]
6.00 to 7.00	O=C(c1cnc(NCc2cc(OC(F)(F)F)cc(C3CC3)c2)nc1)N1CC(O)C1 [Example 83, (2-((3-cyclopropyl-5-(trifluoromethoxy)benzyl)ami-no)pyrimidin-5-yl)(3-hydroxyazetidin-1-yl)-methanone]
6.00 to 7.00	O=C(c1cnc(NCc2cc(OC(F)(F)F)cc(C3CC3)c2)nc1)N1CC(F)(F)C1 [Example 86, (2-((3-cyclopropyl-5-(trifluoromethoxy)benzyl)ami-no)pyrimidin-5-yl)(3,3-difluroazetidin-1-yl)-methanone]
6.00 to 7.00	CC1(O)CN(C(=O)c2cnc(NCc3cc(OC(F)(F)F)cc(C4CC4)c3)nc2)C1 [Example 87, (2-((3-cyclopropyl-5-(trifluoromethoxy)benzyl)ami-no)pyrimidin-5-yl)(3-hydroxy-3-methylazetidin-1-yl)methanone]
> 7.00	CC1(C)CCN1C(=O)c1cnc(NCc2cc(OC(F)(F)F)cc(C3CC3)c2)nc1 [Example 89, (2-((3-cyclopropyl-5-(trifluoromethoxy)benzyl)ami-no)pyrimidin-5-yl)(2,2-dimethylazetidin-1-yl)methanone]
